Consider 1 molecule from patent US8354539B2, “Indole derivatives as IKK2 inhibitors” (Glaxo Group Limited, priority 2009, dated 2013).

Each structure is given as a SMILES string. Some results are limits rather than exact numbers.

For this assay, the system named is human peripheral blood mononuclear cells (PBMC). Description: Human peripheral blood mononuclear cell assay (LPS stimulated TNFa production). Format: cell-based. To be noted: read-out: pIC50 potency, inhibition of TNF production (converted). The method, then:
The cellular potency of compounds was assessed in human peripheral blood mononuclear cells (PBMC) by measuring their impact on lipopolysaccharide (LPS) stimulated TNFa production. PBMCs were prepared from heparinised human blood from normal volunteers by centrifugation on hystopaque in Accuspin tubes at 800 g for 20 minutes. The cells were collected from the interface, washed by centrifugation (1300 g, 10 minutes) and resuspended in assay buffer (RPMI1640 containing 10% foetal calf serum, 1% L-glutamine and 1% penicillin/streptomycin) at 1×10^6 cells/ml. […] The supernatant was removed and the concentrations of TNF determined by electrochemiluminescence assay using the MSD technology.
20 μl supernatant from PBMC plates or 40 μl from whole blood plates was transferred using the Biomek FX to a 96 well High-Bind MSD assay plate precoated with anti-hTNF alpha capture antibody and containing 25 μl of MSD human serum cytokine assay diluent. […] The plates were shaken at room temperature for a further 1 hour before washing again and adding 150 μl of MSD Read Buffer T (2×). Plates were then read on the MSD Sector 6000 plate reader. For the PBMC assay, supernatant addition to the MSD plates was followed immediately by 20 μl of MSD detection antibody, the plates were then sealed and shaken for 2 hours before addition of 90 μl of MSD Read Buffer P (2.5×). Plates were read on the MSD Sector 6000. […]

Take `COCCS(=O)(=O)N1CCC(c2c[nH]c3c(C(N)=O)cc(-c4ccc5c(c4)CN(C(C)C)C5)cc23)CC1` [Compound of formula (I), 5-[2-(1-methylethyl)-2,3-dihydro-1H-isoindol-5-yl]-3-(1-{[2-(methyloxy)ethyl]sulfonyl}-4-piperidinyl)-1H-indole-7-carboxamide]: the IC50 was < 31.6 nM.
